Our source for the Kd values is ChEMBL document CHEMBL1144455, “A small molecule-kinase interaction map for clinical kinase inhibitors” (Nat Biotechnol, 2005).

The target of assay [1] is Mitogen-activated protein kinase kinase kinase kinase 5 (Homo sapiens, UniProt Q9Y4K4).
Assay [2] deals with Tyrosine-protein kinase JAK2 (Homo sapiens, UniProt O60674).
Assay [3] has as its target Dual specificity protein kinase CLK1 (Homo sapiens, UniProt P49759).
Assay [4] addresses Tyrosine-protein kinase CSK (Homo sapiens, UniProt P41240).
Assay [5] has as its target Tyrosine-protein kinase FRK (Homo sapiens, UniProt P42685).
Assay [6] concerns the target Mitogen-activated protein kinase 10 (Homo sapiens, UniProt P53779).
For assay [7], the target named is T1, Serine/threonine-protein kinase PLK4 (Homo sapiens, UniProt O00444).
T1 sequence (O00444 whole entry): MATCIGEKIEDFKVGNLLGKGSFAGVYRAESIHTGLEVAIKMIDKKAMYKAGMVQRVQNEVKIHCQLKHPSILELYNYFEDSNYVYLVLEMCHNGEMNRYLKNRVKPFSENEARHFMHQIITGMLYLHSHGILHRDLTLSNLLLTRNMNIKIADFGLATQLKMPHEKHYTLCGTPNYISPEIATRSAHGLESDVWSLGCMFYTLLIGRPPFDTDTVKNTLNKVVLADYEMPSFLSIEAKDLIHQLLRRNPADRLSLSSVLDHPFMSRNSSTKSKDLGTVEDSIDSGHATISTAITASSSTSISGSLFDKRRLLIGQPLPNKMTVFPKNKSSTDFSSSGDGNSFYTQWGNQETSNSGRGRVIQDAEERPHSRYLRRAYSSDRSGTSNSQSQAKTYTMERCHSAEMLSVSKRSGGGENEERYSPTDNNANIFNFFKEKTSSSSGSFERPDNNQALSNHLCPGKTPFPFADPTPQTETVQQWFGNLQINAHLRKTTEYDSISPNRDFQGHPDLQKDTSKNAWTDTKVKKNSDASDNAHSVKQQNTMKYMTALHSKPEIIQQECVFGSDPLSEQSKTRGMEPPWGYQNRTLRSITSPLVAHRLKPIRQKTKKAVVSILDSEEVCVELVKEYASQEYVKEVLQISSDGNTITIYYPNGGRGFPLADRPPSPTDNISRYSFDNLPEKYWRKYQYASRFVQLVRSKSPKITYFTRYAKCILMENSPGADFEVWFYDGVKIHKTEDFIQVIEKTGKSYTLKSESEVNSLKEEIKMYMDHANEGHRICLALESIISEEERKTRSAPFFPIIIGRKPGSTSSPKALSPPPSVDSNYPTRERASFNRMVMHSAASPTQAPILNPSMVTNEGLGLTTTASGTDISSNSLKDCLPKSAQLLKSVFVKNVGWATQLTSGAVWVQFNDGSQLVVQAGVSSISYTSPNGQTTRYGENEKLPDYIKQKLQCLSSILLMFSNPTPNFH

Assay [8] has as its target T2, Serine/threonine-protein kinase 4 (Homo sapiens, UniProt Q13043).
T2 sequence (Q13043 whole entry): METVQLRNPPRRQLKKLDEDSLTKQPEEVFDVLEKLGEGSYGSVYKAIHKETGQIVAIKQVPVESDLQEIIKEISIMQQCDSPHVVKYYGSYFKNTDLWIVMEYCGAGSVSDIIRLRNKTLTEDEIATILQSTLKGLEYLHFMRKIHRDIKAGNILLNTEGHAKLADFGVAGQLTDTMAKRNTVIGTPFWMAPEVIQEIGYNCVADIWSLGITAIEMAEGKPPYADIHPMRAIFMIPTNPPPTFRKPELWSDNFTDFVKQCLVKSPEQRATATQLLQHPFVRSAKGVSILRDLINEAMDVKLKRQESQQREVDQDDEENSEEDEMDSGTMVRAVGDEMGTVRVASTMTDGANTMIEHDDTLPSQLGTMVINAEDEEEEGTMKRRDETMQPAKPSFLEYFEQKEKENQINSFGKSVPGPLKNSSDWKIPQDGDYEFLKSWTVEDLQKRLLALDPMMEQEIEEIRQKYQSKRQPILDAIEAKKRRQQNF

Assay [9] has as its target Calcium/calmodulin-dependent protein kinase type 1 (Homo sapiens, UniProt Q14012).
Assay [10] concerns the target Cyclin-dependent kinase 2 (Homo sapiens, UniProt P24941).

Chain of Tyrosine-protein kinase CSK (P41240 whole entry): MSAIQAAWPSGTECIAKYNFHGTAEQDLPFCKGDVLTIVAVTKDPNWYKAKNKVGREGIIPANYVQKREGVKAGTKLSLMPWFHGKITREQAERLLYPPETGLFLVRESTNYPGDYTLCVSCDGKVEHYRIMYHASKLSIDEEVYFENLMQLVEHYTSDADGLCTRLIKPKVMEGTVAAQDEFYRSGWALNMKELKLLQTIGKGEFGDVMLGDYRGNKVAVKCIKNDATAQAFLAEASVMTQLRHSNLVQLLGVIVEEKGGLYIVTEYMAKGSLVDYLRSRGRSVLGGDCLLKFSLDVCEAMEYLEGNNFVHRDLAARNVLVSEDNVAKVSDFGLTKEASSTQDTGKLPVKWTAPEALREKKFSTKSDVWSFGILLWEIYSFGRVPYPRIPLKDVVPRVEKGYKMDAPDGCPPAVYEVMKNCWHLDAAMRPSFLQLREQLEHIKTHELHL
Chain of Mitogen-activated protein kinase kinase kinase kinase 5 (Q9Y4K4 whole entry): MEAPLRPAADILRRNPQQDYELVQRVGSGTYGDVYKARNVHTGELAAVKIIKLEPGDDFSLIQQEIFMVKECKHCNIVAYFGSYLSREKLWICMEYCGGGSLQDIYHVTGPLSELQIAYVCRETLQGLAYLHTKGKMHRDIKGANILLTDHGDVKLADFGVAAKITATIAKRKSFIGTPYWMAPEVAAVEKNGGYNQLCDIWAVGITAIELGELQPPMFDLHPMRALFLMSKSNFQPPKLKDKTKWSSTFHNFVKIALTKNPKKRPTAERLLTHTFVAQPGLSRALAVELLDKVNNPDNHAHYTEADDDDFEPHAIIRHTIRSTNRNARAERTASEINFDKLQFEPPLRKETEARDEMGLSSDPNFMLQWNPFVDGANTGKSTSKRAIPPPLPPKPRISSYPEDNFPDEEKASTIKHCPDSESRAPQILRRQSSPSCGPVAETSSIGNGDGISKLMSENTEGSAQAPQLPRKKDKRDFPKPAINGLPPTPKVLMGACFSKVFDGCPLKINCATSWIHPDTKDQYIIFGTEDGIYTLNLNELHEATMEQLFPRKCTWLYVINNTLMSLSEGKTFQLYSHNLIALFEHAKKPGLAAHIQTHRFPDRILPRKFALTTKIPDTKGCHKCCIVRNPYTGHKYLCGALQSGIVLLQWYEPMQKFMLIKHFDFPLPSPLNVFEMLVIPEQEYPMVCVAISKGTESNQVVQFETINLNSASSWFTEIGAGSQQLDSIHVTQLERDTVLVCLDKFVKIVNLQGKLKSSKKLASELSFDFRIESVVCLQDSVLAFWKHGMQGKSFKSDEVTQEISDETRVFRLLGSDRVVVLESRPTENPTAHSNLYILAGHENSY
Chain of Calcium/calmodulin-dependent protein kinase type 1 (Q14012 whole entry): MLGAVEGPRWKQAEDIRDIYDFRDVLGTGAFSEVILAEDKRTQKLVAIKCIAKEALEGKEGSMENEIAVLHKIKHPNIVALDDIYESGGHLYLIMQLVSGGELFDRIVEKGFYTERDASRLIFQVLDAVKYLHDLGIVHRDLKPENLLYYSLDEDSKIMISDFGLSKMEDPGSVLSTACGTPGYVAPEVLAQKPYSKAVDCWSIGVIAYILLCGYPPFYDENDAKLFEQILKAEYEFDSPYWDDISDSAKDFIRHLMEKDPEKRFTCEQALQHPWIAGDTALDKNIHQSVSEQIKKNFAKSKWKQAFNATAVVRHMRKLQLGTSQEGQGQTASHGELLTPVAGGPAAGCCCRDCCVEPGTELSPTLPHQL
Chain of Tyrosine-protein kinase JAK2 (O60674 whole entry): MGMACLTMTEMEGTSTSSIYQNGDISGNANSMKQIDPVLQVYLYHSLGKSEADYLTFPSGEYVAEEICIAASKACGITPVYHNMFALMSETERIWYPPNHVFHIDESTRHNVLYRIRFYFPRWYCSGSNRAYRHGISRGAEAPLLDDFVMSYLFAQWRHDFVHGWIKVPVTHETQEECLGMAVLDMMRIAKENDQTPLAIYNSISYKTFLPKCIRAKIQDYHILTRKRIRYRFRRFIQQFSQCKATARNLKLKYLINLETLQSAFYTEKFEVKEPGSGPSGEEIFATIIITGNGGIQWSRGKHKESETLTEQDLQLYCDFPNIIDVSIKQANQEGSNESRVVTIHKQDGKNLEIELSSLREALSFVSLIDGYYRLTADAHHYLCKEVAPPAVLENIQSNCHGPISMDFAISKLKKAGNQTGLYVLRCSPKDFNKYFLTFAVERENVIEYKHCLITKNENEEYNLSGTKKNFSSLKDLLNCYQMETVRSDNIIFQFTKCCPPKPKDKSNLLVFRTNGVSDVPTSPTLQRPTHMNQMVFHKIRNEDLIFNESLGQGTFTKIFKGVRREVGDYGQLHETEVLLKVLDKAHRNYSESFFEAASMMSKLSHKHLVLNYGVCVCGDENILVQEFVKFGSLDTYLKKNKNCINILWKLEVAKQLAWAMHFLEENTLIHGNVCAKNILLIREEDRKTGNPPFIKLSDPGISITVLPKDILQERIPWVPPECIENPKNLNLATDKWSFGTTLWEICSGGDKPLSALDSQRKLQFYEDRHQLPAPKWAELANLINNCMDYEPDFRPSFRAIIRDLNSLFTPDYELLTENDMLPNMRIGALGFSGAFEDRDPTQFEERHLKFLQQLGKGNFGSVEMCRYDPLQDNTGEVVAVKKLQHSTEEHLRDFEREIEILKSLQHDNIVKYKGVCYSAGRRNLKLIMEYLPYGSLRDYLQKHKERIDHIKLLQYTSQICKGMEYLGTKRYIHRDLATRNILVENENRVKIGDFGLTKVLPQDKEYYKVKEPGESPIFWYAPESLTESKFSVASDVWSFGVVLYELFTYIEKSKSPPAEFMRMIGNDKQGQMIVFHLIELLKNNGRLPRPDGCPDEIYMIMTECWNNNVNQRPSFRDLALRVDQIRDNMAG
Chain of Dual specificity protein kinase CLK1 (P49759 whole entry): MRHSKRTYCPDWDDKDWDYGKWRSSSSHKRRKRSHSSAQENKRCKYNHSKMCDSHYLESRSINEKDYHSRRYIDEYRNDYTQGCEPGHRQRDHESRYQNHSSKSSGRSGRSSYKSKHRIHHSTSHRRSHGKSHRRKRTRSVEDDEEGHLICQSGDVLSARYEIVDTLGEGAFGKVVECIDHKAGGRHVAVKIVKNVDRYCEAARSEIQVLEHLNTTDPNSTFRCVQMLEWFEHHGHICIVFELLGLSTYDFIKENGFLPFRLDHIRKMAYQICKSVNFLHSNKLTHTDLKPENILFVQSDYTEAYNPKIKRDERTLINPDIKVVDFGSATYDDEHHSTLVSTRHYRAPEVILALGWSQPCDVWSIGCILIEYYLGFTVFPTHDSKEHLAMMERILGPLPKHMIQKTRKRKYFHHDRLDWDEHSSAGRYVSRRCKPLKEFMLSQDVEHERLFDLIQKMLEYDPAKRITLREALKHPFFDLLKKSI
Chain of Mitogen-activated protein kinase 10 (P53779 whole entry): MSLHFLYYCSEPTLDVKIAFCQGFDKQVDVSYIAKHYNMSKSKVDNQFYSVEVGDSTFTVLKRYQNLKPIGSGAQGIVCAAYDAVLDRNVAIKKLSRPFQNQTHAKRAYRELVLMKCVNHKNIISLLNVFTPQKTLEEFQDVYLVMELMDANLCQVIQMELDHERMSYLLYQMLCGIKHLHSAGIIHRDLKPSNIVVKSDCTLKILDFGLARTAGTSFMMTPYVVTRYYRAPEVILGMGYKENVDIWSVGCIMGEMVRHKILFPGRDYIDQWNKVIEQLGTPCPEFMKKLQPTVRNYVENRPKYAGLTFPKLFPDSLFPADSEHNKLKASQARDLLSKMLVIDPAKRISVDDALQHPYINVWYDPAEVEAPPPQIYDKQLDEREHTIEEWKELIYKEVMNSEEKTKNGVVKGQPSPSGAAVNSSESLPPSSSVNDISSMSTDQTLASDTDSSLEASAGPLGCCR
Chain of Tyrosine-protein kinase FRK (P42685 whole entry): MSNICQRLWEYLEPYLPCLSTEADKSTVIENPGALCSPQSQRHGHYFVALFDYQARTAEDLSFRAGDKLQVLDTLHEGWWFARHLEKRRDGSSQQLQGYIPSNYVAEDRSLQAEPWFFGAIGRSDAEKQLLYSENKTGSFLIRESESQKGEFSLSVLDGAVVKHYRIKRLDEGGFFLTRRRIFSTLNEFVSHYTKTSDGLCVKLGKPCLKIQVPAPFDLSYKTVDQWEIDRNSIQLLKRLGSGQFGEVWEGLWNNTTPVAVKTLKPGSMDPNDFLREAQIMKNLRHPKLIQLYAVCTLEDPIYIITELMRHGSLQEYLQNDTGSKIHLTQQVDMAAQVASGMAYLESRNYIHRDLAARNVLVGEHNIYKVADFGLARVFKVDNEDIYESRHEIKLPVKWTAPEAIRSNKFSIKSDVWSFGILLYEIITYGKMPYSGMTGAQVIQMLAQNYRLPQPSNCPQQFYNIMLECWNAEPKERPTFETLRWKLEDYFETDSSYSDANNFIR

As for `CCOc1cc2ncc(C#N)c(Nc3ccc(F)c(Cl)c3)c2cc1NC(=O)/C=C/CN(C)C` [PELITINIB], the Kd (commonly a measure of binding affinity in units of concentration) in assay [1] came out at 0.0037 µM; in assay [2], 2 µM; in assay [3], 1 µM; in [4] it was 2.3 µM.

Take `Oc1ccc(-c2nc(-c3ccc(F)cc3)c(-c3ccncc3)[nH]2)cc1` [SB-202190]: the Kd came to 6 µM in assay [5] and 0.051 µM in [6].

Take `Oc1c2ccccc2c2c3c(cccc13)N=N2` [SP-600125]: the Kd in assay [7] is 0.77 µM; in [8], 2.2 µM; in [9], 4.1 µM; in assay [10], 3.2 µM.
